Read-outs that look alike come from different tables or passages of the source. Where a SMILES comes first, the peptide text is derived from it. Bridges are numbered along the chain shown (N, C = ends).
Assays:
[1] = target: T1, Bovine pancreatic trypsin (Bos taurus, UniProt P00760); experiment: Trypsin inhibition assay (substrate-independent Ki); format: biochemical; conditions: substrate-independent Ki from Ki app (Morrison equation) and Km; 250 µM substrate; preincubation 30 min RT; read over 30 min; triplicate
T1 construct: purchased Sigma-Aldrich
T1 sequence (P00760 24-246): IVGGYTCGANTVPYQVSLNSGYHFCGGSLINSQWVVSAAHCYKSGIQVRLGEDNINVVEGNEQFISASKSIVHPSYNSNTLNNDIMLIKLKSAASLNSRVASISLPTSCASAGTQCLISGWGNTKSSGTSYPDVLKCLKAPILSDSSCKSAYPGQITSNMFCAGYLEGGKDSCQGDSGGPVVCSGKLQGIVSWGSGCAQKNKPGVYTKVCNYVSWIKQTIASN
Protocol: Bovine pancreatic trypsin, thrombin and uPA were purchased from Sigma-Aldrich and Hepsin from R&D Systems.
Measurements were carried out in triplicate using a Tecan Genios ELISA reader. The normalized residual proteolytic activity (v/v0) of proteases was determined using substrates Boc-QAR-pNA (250 µM, (pNA stands for para-nitro aniline), Boc-QAR-AMC (250 µM, AMC stands for amino-methyl coumarin) or Spectrozym tPA (250 µM, American Diagnostica, CH3SO2-D-CHT-Gly-Arg-pNA AcOH). Product formation was monitored after preincubation (30 min, RT) with inhibitor at different concentrations over 30 min by measuring the absorbance at 405 nm for pNA substrates or the fluorescence emission for AMC substrates (ex. 360 nm, em. 465 nm), respectively. Selectivity data were carried out in duplicates with final protease concentrations of uPA and thrombin of 5 nM. In case of hepsin 50 mM Tris/HCl pH 9.0 was used as assay buffer.
(§1) Apparent inhibition constants (Ki ^app) were calculated by fitting the Morrison equation (1) for tight-binding inhibitors to the relative reaction velocity using non-linear regression (Marquardt-Levenberg algorithm, Sigma Plot 11) [63].
(§2) Substrate-independent inhibition constants Ki were calculated from Ki ^app and Km of the enzyme according to (2).

Human matriptase-1 = target: T2, Human matriptase-1 (Homo sapiens, UniProt Q9Y5Y6); experiment: Matriptase-1 inhibition assay (Ki / Ki app); format: biochemical
T2 construct: made in house
T2 sequence (Q9Y5Y6 615-855 limits assumed): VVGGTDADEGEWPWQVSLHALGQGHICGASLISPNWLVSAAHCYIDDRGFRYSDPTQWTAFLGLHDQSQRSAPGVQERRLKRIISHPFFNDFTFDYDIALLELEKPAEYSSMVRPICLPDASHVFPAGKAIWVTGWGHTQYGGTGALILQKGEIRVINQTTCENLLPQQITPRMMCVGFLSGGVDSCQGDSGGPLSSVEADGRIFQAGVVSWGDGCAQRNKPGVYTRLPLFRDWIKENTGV
Protocol: Human matriptase-1 was produced recombinantly, autocatalytically activated and purified as previously reported [35], [49], [51], [60].
Measurements were carried out in triplicate using a Tecan Genios ELISA reader.
as §1, §2

[2] = test system: uPA activation by matriptase-1 on the surface of PC-3 cells; experiment: Cell inhibition assay: uPA activation by matriptase-1 on the surface of PC-3 cells; format: cell-based, human; conditions: control, concentration of 10 µM
Protocol: Human prostate cancer cells (PC-3, Merck KGaA) were cultured in DMEM medium with 10% FCS at 37°C and 5% CO2, washed with cation-free PBS and harvested by scraping. 1×10^5 cells were incubated in presence of 250 µM Bz-β-Ala-Gly-Arg-pNA·AcOH (American Diagnostica), which is a specific […] of urokinase, and the inhibitor of interest in defined dilutions overnight. Product formation was monitored at 405 nm before and after incubation in a microplate reader. IC50 was calculated by non-linear regression using SigmaPlot 11.
Urokinase-type plasminogen activator (uPA) causes the degradation of the extracellular matrix and plays a critical role in tumor invasion and metastasis, [73]. It was shown that activation of receptor-bound pro-uPA is affected by matriptase-1, which results in a decreased ability of uPAexpressing tumor cells to invade an extracellular matrix layer upon inhibition of membrane-bound matriptase-1 [72].
For the indirect determination of the IC50 of SOTI Var. 1 and MCoTI Var. 4 on the surface of these cancer cells, the turnover of an uPA substrate was monitored. Pro-uPA is activated through non-inhibited matriptase-1 and substrate turnover was measured and compared to the previously reported small molecule inhibitor S1 of matriptase-1 (Figure 4). In this experimental setting, the MCoTI-based inhibitor Var. […] 4 in this assay.
Figure 4 Inhibition assay of uPA activation by matriptase-1 on the surface of PC-3 cells. Depicted is the logarithmic inhibitor concentration against the absorption at 405 TEXT PRINTED IN THE PICTURE: MCoTI Var.

[3] = substrate-independent Ki from Ki app (Morrison equation) and Km, 250 µM substrate, preincubation 30 min RT, read over 30 min, triplicate, read-out: Ki (Matriptase-1)
[4] = apparent inhibition constant (Morrison equation), MCoTI variants isolated from M. cochinchinensis seeds, oMCoTI-II synthetic, read-out: Kiapp towards matriptase-1

SMILES | Ki [1] [nM] | Ki (Human matriptase-1; [3]) [nM] | Ki (Human matriptase-1; [4]) [nM] | Ki (Trypsin) [1] | Ki (Matriptase-1) (Human matriptase-1; substrate-independent Ki from Ki app (Morrison equation) and Km, 250 µM substrate, preincubation 30 min RT, read over 30 min, triplicate) | inhibition of matriptase-1 or uPA in the PC-3 assay [2]
CC[C@H](C)[C@H](N)C(=O)NCC(=O)N[C@H](C(=O)N[C@H]1CSSC[C@@H]2NC(=O)[C@H](C)NC(=O)CNC(=O)[C@@H]3CCCN3C(=O)[C@@H]3CSSC[C@@H](C(=O)NCC(N)=O)NC(=O)[C@H](Cc4ccc(O)cc4)NC(=O)CNC(=O)[C@H](CC(N)=O)NC(=O)CNC(=O)[C@H](CCCNC(=N)N)NC(=O)[C@H](CSSC[C@H](NC(=O)[C@H](C)NC(=O)[C@H](CCCNC(=N)N)NC(=O)[C@H](CC(C)C)NC(=O)[C@H](CC(C)C)NC(=O)[C@H](CCCCN)NC(=O)[C@@H]4CCCN4C1=O)C(=O)N[C@@H](CCCNC(=N)N)C(=O)N[C@@H](CCCNC(=N)N)C(=O)N[C@@H](CC(=O)O)C(=O)N[C@@H](CO)C(=O)N[C@@H](CC(=O)O)C(=O)N3)NC(=O)[C@H]([C@@H](C)CC)NC2=O)C(C)C [MCoTI Var. 1] (H-IGVCPKLLRACRRDSDCPGACICRGNGYCG-NH2; disulfide 4-21, 11-23, 17-29) | 31.7 ± 4.3 | 4.4 ± 0.6 | – | – | – | –
CC[C@H](C)[C@@H]1NC(=O)[C@@H]2CSSC[C@H](NC(=O)[C@H](CCCNC(=N)N)NC(=O)[C@H](CCCNC(=N)N)NC(=O)[C@@H](N)CC(N)=O)C(=O)N3CCC[C@H]3C(=O)N[C@@H](CCCCN)C(=O)N[C@@H](C(C)C)C(=O)N[C@@H](CC(C)C)C(=O)N[C@@H](CCCCN)C(=O)N[C@@H](C)C(=O)N[C@H]3CSSC[C@H](NC1=O)C(=O)N[C@@H](CCCNC(=N)N)C(=O)NCC(=O)N[C@@H](CC(N)=O)C(=O)NCC(=O)N[C@@H](Cc1ccc(O)cc1)C(=O)N[C@H](C(=O)NCC(N)=O)CSSC[C@H](NC(=O)[C@H](CC(=O)O)NC(=O)[C@H](CO)NC(=O)[C@H](CC(=O)O)NC(=O)[C@H](CCCNC(=N)N)NC(=O)[C@H](CCCNC(=N)N)NC3=O)C(=O)N1CCC[C@H]1C(=O)NCC(=O)N[C@@H](C)C(=O)N2 [MCoTI Var. 2] | 19.2 ± 2.8 | 3.3 ± 0.4 | – | – | – | –
CC[C@H](C)[C@@H]1NC(=O)[C@@H]2CSSC[C@@H]3NC(=O)[C@H](C(C)C)NC(=O)CNC(=O)CNC(=O)C[C@@H](C(=O)O)NC(=O)[C@H](CO)NC(=O)CNC(=O)[C@H](CO)NC(=O)CNC(=O)[C@@H]4CSSC[C@H](NC(=O)[C@H](CC(=O)O)NC(=O)[C@H](CO)NC(=O)[C@H](CC(=O)O)NC(=O)[C@H](CCCNC(=N)N)NC(=O)[C@H](CCCNC(=N)N)NC(=O)[C@H](CSSC[C@H](NC1=O)C(=O)N[C@@H](CCCNC(=N)N)C(=O)NCC(=O)N[C@@H](CC(N)=O)C(=O)NCC(=O)N[C@@H](Cc1ccc(O)cc1)C(=O)N4)NC(=O)[C@H](CCCCN)NC(=O)[C@H](CCCCN)NC(=O)[C@H](CC(C)C)NC(=O)[C@H]([C@@H](C)CC)NC(=O)[C@H](CCCCN)NC(=O)[C@@H]1CCCN1C3=O)C(=O)N1CCC[C@H]1C(=O)NCC(=O)N[C@@H](C)C(=O)N2 [MCoTI-II (ß-asp), reference compound] (GGVCPKILKKCRRDSDCPGACICRGNGYCGSGSD-OH; disulfide 4-21, 11-23, 17-29; lactam N-34) | – | – | 388 ± 32 | – | – | –
CC[C@H](C)[C@@H]1NC(=O)[C@H](C)NC(=O)CNC(=O)[C@H](CO)NC(=O)[C@@H]2CCCN2C(=O)[C@H](CO)NC(=O)[C@@H](NC(=O)[C@H](CCCCN)NC(=O)[C@H](CC(=O)O)NC(=O)[C@@H](N)CCC(=O)O)CSSC[C@@H]2NC(=O)[C@@H]3CSSC[C@@H](C(=O)N[C@@H](CCC(N)=O)C(=O)O)NC(=O)[C@H](CCCNC(=N)N)NC(=O)[C@H](Cc4c[nH]c5ccccc45)NC(=O)[C@H](CO)NC(=O)[C@H](CCCNC(=N)N)NC(=O)[C@H](C)NC(=O)[C@H](CCCNC(=N)N)NC(=O)[C@H](CCCNC(=N)N)NC(=O)[C@H](CC(N)=O)NC(=O)[C@H](CC(C)C)NC(=O)[C@H](C(C)C)NC(=O)[C@H](CSSC[C@H](NC1=O)C(=O)N[C@@H](CO)C(=O)NCC(=O)N[C@@H](Cc1ccccc1)C(=O)NCC(=O)N1CCC[C@H]1C(=O)N1CCC[C@H]1C(=O)N[C@@H](CCC(=O)O)C(=O)N[C@@H](CCC(N)=O)C(=O)N3)NC(=O)[C@H](C)NC(=O)CNC(=O)[C@H](CO)NC2=O [SOTI Var. 1] (H-EDKCSPSGAICSGFGPPEQCCSGACVLNRRARSWRCQ-OH; disulfide 4-21, 11-25, 20-36) | > 1000 | 28.9 ± 3.5 | – | total loss of trypsin inhibition | – | –
CC[C@H](C)[C@@H]1NC(=O)[C@H](C)NC(=O)CNC(=O)[C@H](CO)NC(=O)[C@@H]2CCCN2C(=O)[C@H](CO)NC(=O)[C@@H](NC(=O)[C@H](CCCCN)NC(=O)[C@H](CC(=O)O)NC(=O)[C@@H](N)CCC(=O)O)CSSC[C@@H]2NC(=O)[C@@H]3CSSC[C@@H](C(=O)N[C@@H](CCC(N)=O)C(=O)O)NC(=O)[C@H](C(C)C)NC(=O)[C@H](Cc4ccccc4)NC(=O)[C@H]([C@@H](C)CC)NC(=O)[C@H](CCCNC(=N)N)NC(=O)[C@H](CC(C)C)NC(=O)[C@H]([C@@H](C)CC)NC(=O)[C@@H]4CCCN4C(=O)[C@H](Cc4c[nH]cn4)NC(=O)[C@@H]4CCCN4C(=O)[C@H](C(C)C)NC(=O)[C@H](CSSC[C@H](NC1=O)C(=O)N[C@@H](CO)C(=O)NCC(=O)N[C@@H](Cc1ccccc1)C(=O)NCC(=O)N1CCC[C@H]1C(=O)N1CCC[C@H]1C(=O)N[C@@H](CCC(=O)O)C(=O)N[C@@H](CCC(N)=O)C(=O)N3)NC(=O)[C@H](C)NC(=O)CNC(=O)[C@H](CO)NC2=O [SOTI-III wt, Spinacia oleracea trypsin inhibitor III, reference compound] (H-EDKCSPSGAICSGFGPPEQCCSGACVPHPILRIFVCQ-OH; disulfide 4-21, 11-25, 20-36) | 60.6 ± 8.4 | > 1000 | – | – | did not display measurable inhibitory activity | no inhibition
CC[C@H](C)[C@@H]1NC(=O)[C@@H]2CSSC[C@H](NC(=O)[C@@H](NC(=O)CNC(=O)[C@@H](N)CO)C(C)C)C(=O)N3CCC[C@H]3C(=O)N[C@@H](CCCCN)C(=O)N[C@@H]([C@@H](C)CC)C(=O)N[C@@H](CC(C)C)C(=O)N[C@@H](CCCCN)C(=O)N[C@@H](CCCCN)C(=O)N[C@H]3CSSC[C@H](NC1=O)C(=O)N[C@@H](CCCNC(=N)N)C(=O)NCC(=O)N[C@@H](CC(N)=O)C(=O)NCC(=O)N[C@@H](Cc1ccc(O)cc1)C(=O)N[C@H](C(=O)NCC(N)=O)CSSC[C@H](NC(=O)[C@H](CC(=O)O)NC(=O)[C@H](CO)NC(=O)[C@H](CC(=O)O)NC(=O)[C@H](CCCNC(=N)N)NC(=O)[C@H](CCCNC(=N)N)NC3=O)C(=O)N1CCC[C@H]1C(=O)NCC(=O)N[C@@H](C)C(=O)N2 [oMCoTI-II, reference compound] (H-SGVCPKILKKCRRDSDCPGACICRGNGYCG-NH2; disulfide 4-21, 11-23, 17-29) | – | – | 276 ± 13 | – | – | –

— paper PMC3795654, “Combinatorial Optimization of Cystine-Knot Peptides towards High-Affinity Inhibitors of Human Matriptase-1” (PLoS ONE, 2013)
